Test results: patent US8377883B2, “Peptide for anti-angiogenesis and use thereof” (Beijing Institute for Cancer Research, priority 2006, dated 2013)

The compounds below were run on mice liver cancer H22 cells (assay: Tumor suppression by FpAT and derivative peptides in liver cancer H22 tumor-bearing mouse model (Example 14)). Conditions: peptides 50 μg/100 μl PBS/injection, angulus oculi medialis vein daily, 7 times; CTX 80 mg/KG; tumors weighed.
Type: in vivo, mice of Kunming strain
Description: Ninety 5-week old mice of Kunming strain purchased from Animal Center Of Chinese Academy Of Medical Sciences were inoculated subcutaneously in forelimb with mice liver cancer H22 cells (National Institute for the Control of Pharmaceutical and Biological Products) (5×10^6/100 μl/mouse). On the next day after inoculation, each kind of inoculated cells were divided randomly into […] with 10 mice per group. FpAT (50 μg/100 μl PBS/injection) and 7 kinds of derivative peptides thereof (see Table 5 below for detailed sequence):FpAT-N3d, FpAT-N6d, FpAT-N9d, FpAT-C3d, FpAT-C6d, FpAT-C9d, FpAT-N5d-C4d, and vehicle control (PBS:100 μl/injection) were injected in angulus oculi medialis vein, with CTX (cyclophosphamide) (80 mg/KG) as positive control daily, 7 times in total. The mice were sacrificed by dislocating the neck on the next day after administration was stopped, and the tumors were taken and weighed for a statistical analysis.

Compound | tumor suppressing rate
O=P1(N(CCCl)CCCl)NCCCO1 (centres unmarked) [CTX, cyclophosphamide, reference compound] | 89.9%
H2N-Asp-Phe-Leu-Ala-Glu-Gly-COOH (H-DFLAEG-OH; listed as Homo sapiens) [FpAT-N5d-C4d] | 56.4%
H2N-Asp-Ser-Gly-Glu-Gly-Asp-COOH (H-DSGEGD-OH; listed as Homo sapiens) [FpAT-C9d] | 34.5%
H2N-Asp-Ser-Gly-Glu-Gly-Asp-Phe-Leu-Ala-COOH (H-DSGEGDFLA-OH; listed as Homo sapiens) [FpAT-C6d] | 32.3%
H2N-Asp-Ser-Gly-Glu-Gly-Asp-Phe-Leu-Ala-Glu-Gly-Gly-COOH (H-DSGEGDFLAEGG-OH; listed as Homo sapiens) [FpAT-C3d] | 46.7%
H2N-Glu-Gly-Asp-Phe-Leu-Ala-Glu-Gly-Gly-Gly-Val-Arg-COOH (H-EGDFLAEGGGVR-OH; listed as Homo sapiens) [FpAT-N3d] | 63.3%
H2N-Glu-Gly-Gly-Gly-Val-Arg-COOH (H-EGGGVR-OH; listed as Homo sapiens) [FpAT-N9d] | 34.5%
H2N-Phe-Leu-Ala-Glu-Gly-Gly-Gly-Val-Arg-COOH (H-FLAEGGGVR-OH; listed as Homo sapiens) [FpAT-N6d] | 57.6%
